From PMC4979872, “Synthesis, fluorescence properties and the promising cytotoxicity of pyrene–derived aminophosphonates” (Beilstein Journal of Organic Chemistry, 2016) come the findings set out here.

Data set [1] deals with HT29 human colorectal adenocarcinoma cell line. Kind of data set: MTT cytotoxicity assay on HT29 cells. It counts as cell-based. Particulars: 24 h incubation, 5 to 600 µM, mean ± SEM of six experiments. An excerpt:
(§1) The cytotoxic effects of dimethyl aminophosphonates 3Aa, 3Ab, 3Ac, 3Ad, 3Ai and dimethyl [hydroxy(pyren-1-yl)methyl]phosphonate (5A) were investigated with two human colorectal carcinoma cell lines: HT29 and HCT116 and also on the normal human lymphocytes. For this a standard MTT (3-(4,5-dimethylthiazol-2-yl)-2,5-diphenyltetrazolium bromide) test was used and results presented as IC50 values (i.e., the concentration of the compound that inhibits 50% growth). The activity of the tested compounds was studied in the concentration range from 5 to 600 µM. […]
(§2) 2.1. Materials and methods
(§3) MTT assay (3-(4,5-dimethylthiazol-2-yl)-2,5-diphenyltetrazolium bromide) facilitates the determination of the level of cell survival after the exposure of cells to potentially toxic substances. The cytotoxicity level of studied compounds was evaluated by determining the dose or concentration that induces a standard biological response. The assessment of the cytotoxic activity of the tested compounds was carried out based on IC50 values – the concentration of the compound which causes inhibition of cell proliferation by 50% as compared to the negative control. To determine the above concentration, was created graphs of cell viability expressed in percentages, depending on the concentrations of studied […]
(§4) MTT (3(4,5-dimethylthiazol-2-yl)-2,5-diphenyltetrazolium bromide), lauryl sulfate (SLS), N,N-dimethylformamide (DMF), dimethyl sulfoxide (DMSO), penicillin-streptomycin solution stabilized, MEM non-essential amino acids solution, Histopaque 1077, and buffered saline (PBS) were purchased from Sigma Chemical Co. Foetal bovine serum (FBS), phytohemagglutinin (PHA), RPMI 1640 medium and Trypsin-EDTA were supplied by […]
(§5) All other chemicals (chemical reagents, substrates, and solvents) were of the highest commercial grade available and were purchased from CytoGen and Sigma–Aldrich. […]
(§6) The human colorectal carcinoma cell line (HCT116) and the human colorectal adenocarcinoma cell line (HT29) were obtained from the American Type Culture Collection (ATCC, Rockville, USA). The HCT116 cells were cultured in RPMI 1640 supplemented with FBS (10%) and antibiotics (1%): penicillin and streptomycin. The HT29 cells were cultured in RPMI 1640 medium supplemented with FBS (10%), antibiotics (1%): penicillin and streptomycin, and MEM non-essential amino acids solution (1%). The lymphocytes, HCT116 and HT29 cells were cultured at 37 °C in a humidified atmosphere of 95% air and 5% CO2.
(§7) A MTT assay was used to assess cell survival after treatment with studied compounds. The MTT assay is a quantitative colorimetric method to determine cell proliferation after treatment with the tested compounds. It is widely used to estimate the cytotoxic effect of chemicals on different types of cells. MTT (3(4,5-dimethyl-2-thiazolyl)-2,5-diphenyl-2H-tetrazolium bromide) is a water-soluble tetrazolium salt, which is converted into an insoluble purple formazan by cleavage of the tertazolium ring by succinate dehydrogenase within the mitochondria. The formazan product is impermeable to the cell membranes and therefore it accumulates in living cells. The purple crystals were extracted into a solution for homogeneous staining and the absorbance was read on a spectrophotometer at 595 nm. The percent reduction of MTT was compared to controls (cells not exposed to tested compounds), which represented 100% MTT reduction. The assay was optimized for the cell lines and chemical compounds used in the experiments.
(§8) The cancer cells and human lymphocytes were grown for 24 h on 96-well plates at a density of 6–8 × 10^3 cells/well and 8 × 10^5 cells/well, respectively. Then the cells were treated with the tested compounds for 24 h incubation periods in a volume of 50 μl per well for the lymphocytes and 100 μl per well for the HCT116, HT29 cells. Subsequently, a fresh MTT solution (lymphocytes, HCT116 and HT29: 20 μl, 5 mg/ml in sterile PBS) was added to each […]
(§9) well for the next 4 h. […]
Background: Tetrazolium assays rely on reduction of a dye to a coloured formazan, in cell work by metabolically active cells.

The subject of data set [2] is HCT116 human colorectal carcinoma cell line. The data set is described as follows: MTT cytotoxicity assay on HCT116 cells. In kind it is cell-based. Particulars: 24 h incubation, 5 to 600 µM, mean ± SEM of six experiments.
Text: as §1, §2, §3, §4, §5, §6, §7, §8, §9

Data set [3] deals with normal human lymphocytes. Kind of data set: MTT cytotoxicity assay on normal human lymphocytes. In kind it is cell-based. The note with it: 24 h incubation, 5 to 600 µM, mean ± SEM of six experiments.
Text: as §1, §2, §3, §4
All other chemicals (chemical reagents, substrates, and solvents) were of the highest commercial grade available and were purchased from CytoGen and Sigma–Aldrich.
Lymphocytes were isolated from the peripheral blood of healthy, non-smoking donors of both sexes by centrifugation in a density gradient of Histopaque 1077 (15 min., 300 × g) (blood was obtained from the Blood Donation Center in Lodz, Poland). The cells were suspended in the culture medium containing RPMI 1640, inactivated FBS (15%), penicillin and streptomycin (1%) and PHA (1%). […]
The lymphocytes, HCT116 […]
and HT29 cells were cultured at 37 °C in a humidified atmosphere of 95% air and 5% CO2.
as §7
as §8, with “each well for the next 4 h. Purple crystals forming in the cancer cells after the reduction of MTT were dissolved by DMSO (100 μl/well). In the case of lymphocytes this was achieved by” for “each”

Molecules are shown by their SMILES. pIC50: −log10 of the molar value.

For orientation: melting point means the temperature, or range, at which the solid turns liquid. Turning to `O=P(OCc1ccccc1)(OCc1ccccc1)C(NCc1ccccc1)c1ccc2ccc3cccc4ccc1c2c34` (centres unmarked), the melting point is 100 to 101 °C.
`O=P(O)(O)C(NCc1ccccc1)c1ccc2ccc3cccc4ccc1c2c34` (centres unmarked) came in with a melting point of 235 to 236 °C.
By pIC50 is commonly meant the IC50 on a negative log10 scale, so that one unit is a factor of ten. `COP(=O)(OC)C(NCc1ccccc1)c1ccc2ccc3cccc4ccc1c2c34` (centres unmarked) [Compound 3Aa]: the pIC50 in data set [1] (Homo sapiens, HT-29, 24 h) was 4.53; in data set [2] (Homo sapiens, HCT-116, 24 h), 4.54; in data set [3] (Homo sapiens, Lymphocyte, 24 h), 4.05.
`COP(=O)(OC)C(Nc1ccccc1)c1ccc2ccc3cccc4ccc1c2c34` (centres unmarked) [Compound 3Ab] yielded a melting point of 203 to 204 °C. The pIC50 in data set [1] (Homo sapiens, HT-29, 24 h) is 3.98. This compound showed a pIC50 in data set [2] (Homo sapiens, HCT-116, 24 h) of 4.15. In data set [3] (Homo sapiens, Lymphocyte, 24 h), this compound showed a pIC50 of 3.48.
Take `COP(=O)(OC)C(Nc1ccc(C)cc1)c1ccc2ccc3cccc4ccc1c2c34` (centres unmarked) [Compound 3Ac, dimethyl N-(4-methylphenyl)amino(pyren-1-yl)methylphosphonate]: the pIC50 in data set [1] (Homo sapiens, HT-29, 24 h) is 4.80; in data set [2] (Homo sapiens, HCT-116, 24 h), 4.80; in data set [3] (Homo sapiens, Lymphocyte, 24 h), 4.76.
Regarding `COc1ccc(NC(c2ccc3ccc4cccc5ccc2c3c45)P(=O)(OC)OC)cc1` (centres unmarked) [Compound 3Ad, dimethyl N-(4-methoxyphenyl)amino(pyren-1-yl)methylphosphonate], the pIC50 in data set [1] was 4.62; in data set [1] (Homo sapiens, HT-29, 24 h), approximately 4.70; in data set [2], 4.68; in data set [2] (Homo sapiens, HCT-116, 24 h), approximately 4.70; in data set [3], 3.64; in data set [3] (Homo sapiens, Lymphocyte, 24 h) it was approximately 3.64.
For `COP(=O)(OC)C(Nc1cccc(C)c1)c1ccc2ccc3cccc4ccc1c2c34` (centres unmarked) [Compound 3Ai, dimethyl N-(m-methylphenyl)amino(pyren-1-yl)methylphosphonate], the melting point lay in the range of 209 to 210 °C. The compound further had a negative logarithm of the IC50 (pIC50) in data set [1] (Homo sapiens, HT-29, 24 h) of 4.24. The same compound gave a pIC50 in data set [2] (Homo sapiens, HCT-116, 24 h) of 4.69. Moreover, the pIC50 in data set [3] (Homo sapiens, Lymphocyte, 24 h) is 4.12.
With `Cc1ccc(NC(c2ccc3ccc4cccc5ccc2c3c45)P(=O)(O)O)cc1` (centres unmarked) [Compound 4c], the melting point was 210 to 211 °C. In data set [1] (Homo sapiens, HT-29, 24 h), this compound showed a pIC50 of approximately 4.82. Further, the pIC50 in data set [2] (Homo sapiens, HCT-116, 24 h) is approximately 4.82. This compound also showed a pIC50 in data set [3] (Homo sapiens, Lymphocyte, 24 h) of approximately 4.77.
For the compound `COP(=O)(OC)C(O)c1ccc2ccc3cccc4ccc1c2c34` (centres unmarked) [Compound 5A, dimethyl hydroxy(pyren-1-yl)methylphosphonate], the pIC50 was 4.59 in data set [1] (Homo sapiens, HT-29, 24 h); 4.39 in data set [2] (Homo sapiens, HCT-116, 24 h); 3.87 in data set [3] (Homo sapiens, Lymphocyte, 24 h).
